Assay results from patent US10336702B2, “Pharmaceutically active compounds” (BERGENBIO ASA, priority 2015, dated 2019).

Legend:
p-Akt1 in LNCaP cells = target: T1, p-Akt1 in LNCaP cells (Homo sapiens, UniProt P31749); assay: Phospho-Akt cellular SureFire assay, p-Akt1 in LNCaP cells; format: cell-based; details: read-out: Biological Assay 2 IC50 (nM) Akt1 LNCaP
T1 construct: SureFire assays to detect cellular p-Akt1, p-Akt2 and p-Akt3 levels in WM115 cells (Akt2/3) and LNCaP cells (Akt1); endogenous in cells; host or cells: LNCaP (ECACC 89110211)
Outline: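 Phospho-Thr308 Akt1 detected by AlphaScreen SureFire proximity beads in LNCaP lysates after 15 min compound treatment at 37 °C in 0.1% FBS medium, unstimulated, 0.3% DMSO. Cells plated at 5×10^4/well overnight; IC50 from a 4-parameter equation.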

Akt3 = target: T2, Akt3 (Homo sapiens, UniProt Q9Y243); assay: Akt activation assay (PDK1-mediated activation, LANCE Ultra crosstide TR-FRET), Akt3; format: biochemical; details: read-out: Biological Assay 1 IC50 (nM) Akt3
T2 construct: unspecified tag, removed (detagged) (cleaved yes); purchased SignalChem and Proteros (Akt3); Merck Millipore (PDK1) 14-452 (PDK1); none given for Akt3
Outline: (§1)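 TR-FRET read-out (665/615 nm ratio) after Eu-anti-phospho-crosstide antibody, 1 h. Reaction: compound preincubated with Akt isoform, then 5 nM PDK1, lipid vesicles with 0.55 μM PtdIns(3,4,5)P3, 100 μM ATP, 100 nM crosstide, 30 min, EDTA stop. IC50 from 4-parameter equation.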

Akt2 = target: T3, Akt2 (Homo sapiens, UniProt P31751); assay: Akt activation assay (PDK1-mediated activation, LANCE Ultra crosstide TR-FRET), Akt2; format: biochemical; details: read-out: Biological Assay 1 IC50 (nM) Akt2
T3 construct: unspecified tag, removed (detagged) (cleaved yes); purchased SignalChem and Proteros (Akt2); Merck Millipore (PDK1) 14-452 (PDK1); none given for Akt2
Outline: as §1

p-Akt3 in WM115 cells = target: T4, p-Akt3 in WM115 cells (Homo sapiens, UniProt Q9Y243); assay: Phospho-Akt cellular SureFire assay, p-Akt3 in WM115 cells; format: cell-based; details: insulin stimulated, read-out: Biological Assay 2 IC50 (nM) Akt3 WM115
T4 construct: SureFire assays to detect cellular p-Akt1, p-Akt2 and p-Akt3 levels in WM115 cells (Akt2/3) and LNCaP cells (Akt1); endogenous in cells; host or cells: WM115 (ECACC 91061232), insulin-stimulated
Outline: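 pThr308-Akt3 in lysates was quantified by bead-proximity SureFire detection, pairing a phospho-specific antibody with a total Akt3 antibody. Before lysis, WM115 cells in 0.1% FBS medium were treated for 15 min at 37 °C with compound (final DMSO 0.3%), following a 10 min stimulation with 100 nM insulin. IC50 was obtained by 4-parameter fitting.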

p-Akt2 in WM115 cells = target: T5, p-Akt2 in WM115 cells (Homo sapiens, UniProt P31751); assay: Phospho-Akt cellular SureFire assay, p-Akt2 in WM115 cells; format: cell-based; details: insulin stimulated, read-out: Biological Assay 2 IC50 (nM) Akt2 WM115
T5 construct: SureFire assays to detect cellular p-Akt1, p-Akt2 and p-Akt3 levels in WM115 cells (Akt2/3) and LNCaP cells (Akt1); endogenous in cells; host or cells: WM115 (ECACC 91061232), insulin-stimulated
Outline: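 Readout is a bead-proximity SureFire assay pairing a pThr308 Akt antibody with a total Akt2 antibody, lysate and beads incubated 2 h plus 2 h at room temperature in the dark. Before lysis, serum-starved WM115 cells received 100 nM insulin (10 min), then test compound (15 min, 0.3% DMSO); IC50 by 4-parameter equation.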

Akt1 = target: T6, Akt1 (Homo sapiens, UniProt P31749); assay: Akt activation assay (PDK1-mediated activation, LANCE Ultra crosstide TR-FRET), Akt1; format: biochemical; details: read-out: Biological Assay 1 IC50 (nM) Akt1
T6 construct: unspecified tag, removed (detagged) (cleaved yes); purchased SignalChem and Proteros (Akt1); Merck Millipore (PDK1) 14-452 (PDK1); none given for Akt1
Outline: as §1

T6 sequence (P31749 whole entry): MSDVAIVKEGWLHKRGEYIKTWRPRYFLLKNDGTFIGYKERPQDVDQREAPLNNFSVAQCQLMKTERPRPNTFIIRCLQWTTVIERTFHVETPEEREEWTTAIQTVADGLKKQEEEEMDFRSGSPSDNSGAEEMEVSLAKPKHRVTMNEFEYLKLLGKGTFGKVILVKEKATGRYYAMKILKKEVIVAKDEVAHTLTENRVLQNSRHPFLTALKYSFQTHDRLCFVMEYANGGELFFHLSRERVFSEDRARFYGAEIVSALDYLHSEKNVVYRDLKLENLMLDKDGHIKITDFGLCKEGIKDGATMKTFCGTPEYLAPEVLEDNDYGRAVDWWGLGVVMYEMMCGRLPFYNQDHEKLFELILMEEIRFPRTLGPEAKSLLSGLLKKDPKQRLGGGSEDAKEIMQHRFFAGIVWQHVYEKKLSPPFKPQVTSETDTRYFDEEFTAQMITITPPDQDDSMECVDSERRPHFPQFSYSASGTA
T1 sequence (P31749 whole entry): as above
T5 sequence (P31751 whole entry): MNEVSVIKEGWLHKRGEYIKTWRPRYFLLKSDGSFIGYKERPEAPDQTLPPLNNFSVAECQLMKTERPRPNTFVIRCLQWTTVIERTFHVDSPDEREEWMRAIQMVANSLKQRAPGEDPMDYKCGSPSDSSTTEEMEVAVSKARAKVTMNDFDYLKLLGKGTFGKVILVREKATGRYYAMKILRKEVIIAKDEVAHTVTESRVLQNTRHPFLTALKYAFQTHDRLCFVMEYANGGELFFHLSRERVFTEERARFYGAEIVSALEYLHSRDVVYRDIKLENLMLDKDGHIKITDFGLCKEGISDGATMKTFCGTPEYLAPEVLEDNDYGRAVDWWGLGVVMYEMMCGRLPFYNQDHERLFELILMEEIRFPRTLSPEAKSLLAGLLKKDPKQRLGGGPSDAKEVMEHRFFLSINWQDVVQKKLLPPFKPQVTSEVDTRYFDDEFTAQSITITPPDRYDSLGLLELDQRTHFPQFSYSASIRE
T3 sequence (P31751 whole entry): as above
T2 sequence (Q9Y243 whole entry): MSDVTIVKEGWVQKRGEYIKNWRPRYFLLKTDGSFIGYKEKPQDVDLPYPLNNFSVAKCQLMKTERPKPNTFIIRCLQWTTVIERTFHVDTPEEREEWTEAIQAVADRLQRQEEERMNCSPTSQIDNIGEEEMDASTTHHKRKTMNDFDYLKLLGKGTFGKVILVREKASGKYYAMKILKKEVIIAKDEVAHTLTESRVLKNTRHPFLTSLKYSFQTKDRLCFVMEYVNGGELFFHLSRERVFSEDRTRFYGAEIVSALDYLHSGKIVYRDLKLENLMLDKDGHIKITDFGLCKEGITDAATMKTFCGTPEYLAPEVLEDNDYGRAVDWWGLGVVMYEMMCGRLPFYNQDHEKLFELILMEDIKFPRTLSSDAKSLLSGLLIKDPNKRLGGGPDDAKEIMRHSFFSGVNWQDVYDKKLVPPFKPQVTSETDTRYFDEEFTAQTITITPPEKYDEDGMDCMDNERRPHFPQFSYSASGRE
T4 sequence (Q9Y243 whole entry): as above

| SMILES | IC50 (p-Akt1 in LNCaP cells) [nM] | IC50 (Akt3) [nM] | IC50 (Akt2) [nM] | IC50 (p-Akt3 in WM115 cells) [nM] | IC50 (p-Akt2 in WM115 cells) [nM] | IC50 (Akt1) [nM] |
| --- | --- | --- | --- | --- | --- | --- |
| CC(=O)N(C)[C@H]1CC[C@H](CC(=O)Nc2cc(-c3ccsc3)c(-c3ccc(C4(N)CC4)c(F)c3)nn2)CC1 [Example 92, N-(6-(4-(1-aminocyclopropyl)-3-fluorophenyl)-5-(thiophen-3-yl)pyridazin-3-yl)-2-(trans-4-(N-methylacetamido)cyclohexyl)acetamide] | > 30000 | 170 | 14000 | 230 | > 30000 | > 30000 |
| CN(C(=O)C1CC1)[C@H]1CC[C@H](CC(=O)Nc2cc(-c3ccccc3)c(-c3ccc(C(C)(C)N)cc3)nn2)CC1 [Example A86, N-(trans-4-(2-((6-(4-(2-aminopropan-2-yl)phenyl)-5-phenylpyridazin-3-yl)amino)-2-oxoethyl)cyclohexyl)-N-methylcyclopropanecarboxamide] | > 21000 | 45 | 3900 | 170 | 8300 | > 30000 |
| C[C@]1(O)C[C@@](N)(c2ccc(-c3ncc(NC(=O)C[C@H]4CC[C@H](N5CCOCC5)CC4)cc3-c3ccccc3)cc2)C1 [Example A15, N-(6-(4-(trans-1-amino-3-hydroxy-3-methylcyclobutyl)phenyl)-5-phenylpyridin-3-yl)-2-(trans-4-morpholinocyclohexyl)acetamide] | 760 | 290 | 350 | 48 | 810 | 260 |
| CCC(=O)N(C)[C@H]1CC[C@H](CC(=O)Nc2cc(-c3ccccc3)c(-c3ccc(C4(N)CC4)cc3)cn2)CC1 [Example A81, N-(trans-4-(2-((5-(4-(1-aminocyclopropyl)phenyl)-4-phenylpyridin-2-yl)amino)-2-oxoethyl)cyclohexyl)-N-methylpropionamide] | > 30000 | 69 | 1200 | 390 | 9100 | > 30000 |
| CN([C@H]1CC[C@H](CC(=O)Nc2cnc(-c3ccc(C4(N)CCC4)cc3)c(-c3ccsc3)c2)CC1)S(C)(=O)=O [Example 17, N-(6-(4-(1-aminocyclobutyl)phenyl)-5-(thiophen-3-yl)pyridin-3-yl)-2-(trans-4-(N-methylmethylsulfonamido)cyclohexyl)acetamide] | 7100 | 48 | 1200 | 140 | 1900 | > 26000 |
| CCC(=O)N(C)[C@H]1CC[C@H](CC(=O)Nc2cnc(-c3ccc([C@]4(N)C[C@](C)(O)C4)cc3)c(-c3ccccc3)c2)CC1 [Example 98, N-(4-(2-((6-(4-(trans-1-amino-3-hydroxy-3-methylcyclobutyl)phenyl)-5-phenylpyridin-3-yl)amino)-2-oxoethyl)cyclohexyl)-N-methylpropionamide] | 880 | 5 | 53 | 7 | 470 | 3500 |
| CC(C)(N)c1ccc(-c2cnc(NC(=O)C[C@H]3CC[C@H](N4CCOC4=O)CC3)cc2-c2ccccc2)cc1 [Example 64, N-(5-(4-(2-aminopropan-2-yl)phenyl)-4-phenylpyridin-2-yl)-2-(trans-4-(2-oxooxazolidin-3-yl)cyclohexyl)acetamide] | > 30000 | 180 | 2800 | 210 | 6600 | > 30000 |
| CC(=O)N(C)[C@H]1CC[C@H](CC(=O)Nc2cnc(-c3ccc([C@]4(N)C[C@](C)(O)C4)cc3)c(-c3ccccc3)c2)CC1 [Example 1, N-(6-(4-(trans-1-amino-3-hydroxy-3-methylcyclobutyl)phenyl)-5-phenylpyridin-3-yl)-2-(trans-4-(N-methylacetamido)cyclohexyl)acetamide] | 2700 | 15 | 110 | 30 | 1800 | 780 |
| CC(=O)N(C)[C@H]1CC[C@H](CC(=O)Nc2cc(-c3ccccc3)c(-c3ccc(C4(N)CC4)c(F)c3)nn2)CC1 [Example A54, N-(6-(4-(1-aminocyclopropyl)-3-fluorophenyl)-5-phenylpyridazin-3-yl)-2-(trans-4-(N-methylacetamido)cyclohexyl)acetamide] | > 30000 | 160 | 6300 | 520 | > 13000 | > 30000 |
| CCC(=O)N(C(C)C)[C@H]1CC[C@H](CC(=O)Nc2cc(-c3ccccc3)c(-c3ccc([C@]4(N)C[C@](C)(O)C4)cc3)cn2)CC1 [Example A107, N-(trans-4-(2-((5-(4-(trans-1-amino-3-hydroxy-3-methylcyclobutyl)phenyl)-4-phenylpyridin-2-yl)amino)-2-oxoethyl)cyclohexyl)-N-isopropylpropionamide] | 7100 | 23 | 230 | 76 | 2200 | 8100 |
| COC(=O)N(C)[C@H]1CC[C@H](CC(=O)Nc2cc(-c3ccsc3)c(-c3ccc(C(C)(C)N)cc3)nn2)CC1 [Example A69, Methyl (trans-4-(2-((6-(4-(2-aminopropan-2-yl)phenyl)-5-(thiophen-3-yl)pyridazin-3-yl)amino)-2-oxoethyl)cyclohexyl)(methyl)carbamate] | > 30000 | 220 | 12000 | 710 | > 30000 | > 30000 |
| CC(=O)N(C)[C@H]1CC[C@H](CC(=O)Nc2cc(-c3ccccn3)c(-c3ccc(C4(N)CCC4)cc3)cn2)CC1 [Example 76, N-(5′-(4-(1-aminocyclobutyl)phenyl)-[2,4′-bipyridin]-2′-yl)-2-(trans-4-(N-methylacetamido)cyclohexyl)acetamide] | > 30000 | 1000 | > 30000 | 140 | > 30000 | > 30000 |
| CCC(=O)N(C(C)C)[C@H]1CC[C@H](CC(=O)Nc2cnc(-c3ccc([C@]4(N)C[C@](C)(O)C4)cc3)c(-c3ccccc3)c2)CC1 [Example 122, N-(trans-4-(2-((6-(4-(trans-1-amino-3-hydroxy-3-methylcyclobutyl)phenyl)-5-phenylpyridin-3-yl)amino)-2-oxoethyl)cyclohexyl)-N-isopropylpropionamide] | 1400 | 8 | 87 | 13 | 390 | 6100 |
| COCCN(C)[C@H]1CC[C@H](CC(=O)Nc2cc(-c3ccccc3)c(-c3ccc([C@]4(N)C[C@](C)(O)C4)cc3)cn2)CC1 [Example 128, N-(5-(4-(trans-1-amino-3-hydroxy-3-methylcyclobutyl)phenyl)-4-phenylpyridin-2-yl)-2-(trans-4-((2-methoxyethyl)(methyl)amino)cyclohexyl)acetamide] | 5500 | 110 | 370 | 93 | 810 | > 18000 |
| CCC(=O)N(C)[C@H]1CC[C@H](CC(=O)Nc2cc(-c3ccsc3)c(-c3ccc(C(C)(C)N)cc3)nn2)CC1 [Example 88, N-(trans-4-(2-((6-(4-(2-aminopropan-2-yl)phenyl)-5-(thiophen-3-yl)pyridazin-3-yl)amino)-2-oxoethyl)cyclohexyl)-N-methylpropionamide] | > 30000 | 64 | 8600 | 240 | 16000 | > 30000 |
| CC(C)(N)c1ccc(-c2nnc(NC(=O)C[C@H]3CC[C@H](N4CCOC4=O)CC3)cc2-c2ccsc2)cc1 [Example 80, N-(6-(4-(2-aminopropan-2-yl)phenyl)-5-(thiophen-3-yl)pyridazin-3-yl)-2-(trans-4-(2-oxooxazolidin-3-yl)cyclohexyl)acetamide] | > 30000 | 130 | 8900 | 150 | 18000 | > 30000 |
